# Results published in patent US6248785A, “IL-8 receptor antagonists” (SmithKline Beecham Corporation, priority 1999, dated 2001).
# Biological target: T1, recombinant IL-8 Rb, or Type II, receptor (permissive receptor) (Homo sapiens, UniProt P25025)
# T1 construct: expressed in transfected cells; host or cells: Chinese hamster ovary (CHO) cells, membranes
# T1 sequence (P25025 1-360): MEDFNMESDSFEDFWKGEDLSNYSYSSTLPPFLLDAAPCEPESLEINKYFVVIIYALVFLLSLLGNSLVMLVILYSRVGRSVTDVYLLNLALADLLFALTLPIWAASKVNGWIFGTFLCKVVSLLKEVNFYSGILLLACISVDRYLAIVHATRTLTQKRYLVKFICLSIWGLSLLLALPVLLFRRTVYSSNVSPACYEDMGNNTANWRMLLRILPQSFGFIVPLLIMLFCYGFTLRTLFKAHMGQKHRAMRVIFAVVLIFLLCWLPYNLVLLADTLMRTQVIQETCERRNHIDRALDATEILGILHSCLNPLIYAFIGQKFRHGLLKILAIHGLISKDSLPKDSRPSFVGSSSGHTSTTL
# Assay: IL-8 receptor binding assay, permissive model (125I IL-8 / 125I Gro-a, CHO membranes)
# Conditions: recombinant human IL-8Rb membranes from Chinese hamster ovary cells; 125I IL-8 (0.25 nM) or 125I Gro-a; 1 hour at room temperature
# Excerpt: [^125 I] IL-8 (human recombinant) is obtained from Amersham Corp., Arlington Heights, Ill., with specific activity 2000 Ci/mmol. Gro-a is obtained from NEN-New England Nuclear. All other chemicals are of analytical grade. High levels of recombinant human IL-8 type a and b receptors were individually expressed in Chinese hamster ovary cells as described previously (Holmes, et al., Science, 1991, 253, 1278). The Chinese hamster ovary membranes were homogenized according to a previously described protocol (Haour, et al., J Biol Chem., 249 pp 2195-2205 (1974)). Except that the homogenization buffer is changed to 10 mM Tris-HCL, 1 mM MgSO4, 0.5 mM EDTA (ethylene-diaminetetra-acetic acid), 1 mMPMSF (a-toluenesulphonyl fluoride), 0.5 mg/L Leupeptin, pH 7.5. Membrane protein concentration is determined using Pierce Co. micro-assay kit using bovine serum albumin as a standard. All assays are performed in a 96-well micro plate format. Each reaction mixture contains ^125 I IL-8 (0.25 nM) or ^125 I Gro-a and 0.5 μg/mL of IL-8Ra or 1.0 μg/mL of IL-8Rb membranes in 20 mM Bis-Trispropane and 0.4 mM Tris HCl buffers, pH 8.0, containing 1.2 mM MgSO4, 0.1 mM EDTA, 25 mM NaCl and 0.03% CHAPS. […] The filter is then dried and counted on the Betaplate liquid scintillation counter. […]
structure (smiles),measurement,value
"N#Cc1ccc(NC(=C[N+](=O)[O-])Nc2ccccc2Br)c(O)c1 [Example 1, 1-Nitro-2-[2-hydroxy-4-cyanophenylamino]-2-[2-bromophenylamino]ethylene]",IC50 in the permissive models for IL-8 receptor inhibition,< 50 µg/mL
